Earlier results, collected in US12171873B2, “Devices and methods for delivery of substances to animals” (Ruminant Biotech Corp Limited, priority 2020, dated 2024).

What was measured:
[1] = in vivo
[2] = slaughtered steers, after 48 hour with holding period

Question: With `BrC(Br)Br` [Bromoform, bromoform] as the compound, how does the level in milk [1] read?
Answer: Its level in milk is “no significant increase”.

Question: What about the “residues in meat and tissue” value [2] of the same compound?
Answer: Its value is “no residues”.
